Measured values: patent US6503449B1, “Process for the control of microbial contamination in water-based solids suspensions” (Ciba Specialty Chemicals Corporation, priority 1998, dated 2003)

System: Pseudomonas putida
Assay: Sonication (20 kHz horn probe) of Pigment Red 23 dispersion with biocide, streaking on Nutrient Agar plates
Type: cell-based
Design: key: −: no bacterial colonies detected; +: light contamination (10^0 and 10^3 cfu/ml); ++: moderate contamination(10^3-10^5 cfu/ml); +++: heavy contamination(>10^5 cfu/ml)
Source text: A mixture of Pigment Red 23, available from Ciba Specialty Chemicals(UK) Ltd., 215.5 parts, Emulan OG (RTM) (35% solution in water), available from BASF, 153.7 parts, tributyl phosphate, available from Albright & Wilson, 2 parts, and water, 128.8 parts, are dispersed by re-circulation through a Bachofen KDL200 bead-mill until colouristic properties are within specification of UNISPERSE (RTM) Red RBS-PI, available from Ciba Specialty Chemicals(UK) Ltd., and adjusted to pH 8.0-8.5 with 20% sodium hydroxide solution. This material is identified as containing the Gram negative bacterium, Pseudomonas putida. 50 millilitre aliquots of this dispersion containing levels of glutaraldehyde (pentane-1,5-dialdehyde), available as the trade product Protectol GDA form BASF or Ucarcide from Union Carbide, between 0 parts per million (ppm) and 2000 ppm are sonicated using a Branson MSE sonicator with a 19 mm horn probe resonating at 20 kHz with an amplitude of 6 microns. Sonication is undertaken in a 100 millilitre glass beaker, diameter 38 mm, with magnetic flea agitator and cooled in a water/ice bath to maintain temperature at 28-32° C. Bacterial growth in each sample is assessed at 5 minute intervals by streaking each dispersion on to Nutrient Agar(NA) plates and incubating the plates for a minimum of 48 hours at 30° C. The plates are then examined for bacterial colonies and expressed according to the following notation:
The resistance of the pigment dispersion produced according to the process of the invention to further bacterial growth is recorded by continued observation of the samples of Table 1 over a period of up to 90 days. […]

With `O=CCCCC=O` [glutaraldehyde, pentane-1,5-dialdehyde] the “further bacterial growth, samples of Table 1” value (from here on “further bacterial growth”) (10 ppm, Time 1 (days) after sonication) was “−”, the “further bacterial growth” value (10 ppm, Time 2 (days) after sonication) was “−” and the “further bacterial growth” value (10 ppm, Time 3 (days) after sonication) was “−”. The “further bacterial growth” value (10 ppm, Time 7 (days) after sonication) was “−”, the “further bacterial growth” value (10 ppm, Time 14 (days) after sonication) was “−” and the “further bacterial growth” value (10 ppm, Time 28 (days) after sonication) was “−”. For the same compound, the “further bacterial growth” value (10 ppm, Time 90 (days) after sonication) was “−”, the “bacterial colonies on Nutrient Agar” value (10 ppm, sonicated 0 mins.) was “+++ (heavy contamination(>10^5 cfu/ml))” and the “bacterial colonies on Nutrient Agar” value (10 ppm, sonicated 5 mins.) was “+++ (heavy contamination(>10^5 cfu/ml))”. For the same compound, the “bacterial colonies on Nutrient Agar” value (10 ppm, sonicated 10 mins.) was “+++ (heavy contamination(>10^5 cfu/ml))”, the “bacterial colonies on Nutrient Agar” value (10 ppm, sonicated 15 mins.) was “++ (moderate contamination(10^3-10^5 cfu/ml))” and the “bacterial colonies on Nutrient Agar” value (10 ppm, sonicated 20 mins.) was “+ (light contamination (10^0 and 10^3 cfu/ml))”. For the same compound, the “bacterial colonies on Nutrient Agar” value (10 ppm, sonicated 25 mins.) was “+ (light contamination (10^0 and 10^3 cfu/ml))”, the “bacterial colonies on Nutrient Agar” value (10 ppm, sonicated 30 mins.) was “−” and the “further bacterial growth” value (25 ppm, Time 1 (days) after sonication) was “−”. For the same compound, the “further bacterial growth” value (25 ppm, Time 2 (days) after sonication) was “−”, the “further bacterial growth” value (25 ppm, Time 3 (days) after sonication) was “−” and the “further bacterial growth” value (25 ppm, Time 7 (days) after sonication) was “−”. The “further bacterial growth” value (25 ppm, Time 14 (days) after sonication) was “−”, the “further bacterial growth” value (25 ppm, Time 28 (days) after sonication) was “−” and the “further bacterial growth” value (25 ppm, Time 90 (days) after sonication) was “−”. For the same compound, the “bacterial colonies on Nutrient Agar” value (25 ppm, sonicated 0 mins.) was “+++ (heavy contamination(>10^5 cfu/ml))”, the “bacterial colonies on Nutrient Agar” value (25 ppm, sonicated 5 mins.) was “++ (moderate contamination(10^3-10^5 cfu/ml))” and the “bacterial colonies on Nutrient Agar” value (25 ppm, sonicated 10 mins.) was “−”. The “bacterial colonies on Nutrient Agar” value (25 ppm, sonicated 15 mins.) was “−”, the “bacterial colonies on Nutrient Agar” value (25 ppm, sonicated 20 mins.) was “−” and the “bacterial colonies on Nutrient Agar” value (25 ppm, sonicated 25 mins.) was “−”. The “bacterial colonies on Nutrient Agar” value (25 ppm, sonicated 30 mins.) was “−”, the “further bacterial growth” value (50 ppm, Time 1 (days) after sonication) was “−” and the “further bacterial growth” value (50 ppm, Time 2 (days) after sonication) was “−”. The “further bacterial growth” value (50 ppm, Time 3 (days) after sonication) was “−”, the “further bacterial growth” value (50 ppm, Time 7 (days) after sonication) was “−” and the “further bacterial growth” value (50 ppm, Time 14 (days) after sonication) was “−”. For the same compound, the “further bacterial growth” value (50 ppm, Time 28 (days) after sonication) was “−”, the “further bacterial growth” value (50 ppm, Time 90 (days) after sonication) was “−” and the “bacterial colonies on Nutrient Agar” value (50 ppm, sonicated 0 mins.) was “+++ (heavy contamination(>10^5 cfu/ml))”. For the same compound, the “bacterial colonies on Nutrient Agar” value (50 ppm, sonicated 5 mins.) was “++ (moderate contamination(10^3-10^5 cfu/ml))”, the “bacterial colonies on Nutrient Agar” value (50 ppm, sonicated 10 mins.) was “−” and the “bacterial colonies on Nutrient Agar” value (50 ppm, sonicated 15 mins.) was “++ (moderate contamination(10^3-10^5 cfu/ml))”. For the same compound, the “bacterial colonies on Nutrient Agar” value (50 ppm, sonicated 20 mins.) was “−”, the “bacterial colonies on Nutrient Agar” value (50 ppm, sonicated 25 mins.) was “−” and the “bacterial colonies on Nutrient Agar” value (50 ppm, sonicated 30 mins.) was “−”. For the same compound, the “further bacterial growth” value (75 ppm, Time 1 (days) after sonication) was “−”, the “further bacterial growth” value (75 ppm, Time 2 (days) after sonication) was “−” and the “further bacterial growth” value (75 ppm, Time 3 (days) after sonication) was “−”. The “further bacterial growth” value (75 ppm, Time 7 (days) after sonication) was “−”, the “further bacterial growth” value (75 ppm, Time 14 (days) after sonication) was “−” and the “further bacterial growth” value (75 ppm, Time 28 (days) after sonication) was “−”. The “further bacterial growth” value (75 ppm, Time 90 (days) after sonication) was “−”, the “bacterial colonies on Nutrient Agar” value (75 ppm, sonicated 0 mins.) was “+++ (heavy contamination(>10^5 cfu/ml))” and the “bacterial colonies on Nutrient Agar” value (75 ppm, sonicated 5 mins.) was “−”. The “bacterial colonies on Nutrient Agar” value (75 ppm, sonicated 10 mins.) was “−”, the “bacterial colonies on Nutrient Agar” value (75 ppm, sonicated 15 mins.) was “−” and the “bacterial colonies on Nutrient Agar” value (75 ppm, sonicated 20 mins.) was “−”. For the same compound, the “bacterial colonies on Nutrient Agar” value (75 ppm, sonicated 25 mins.) was “−”, the “bacterial colonies on Nutrient Agar” value (75 ppm, sonicated 30 mins.) was “−” and the “further bacterial growth” value (100 ppm, Time 1 (days) after sonication) was “−”. The “further bacterial growth” value (100 ppm, Time 2 (days) after sonication) was “−”, the “further bacterial growth” value (100 ppm, Time 3 (days) after sonication) was “−” and the “further bacterial growth” value (100 ppm, Time 7 (days) after sonication) was “−”. The “further bacterial growth” value (100 ppm, Time 14 (days) after sonication) was “−”, the “further bacterial growth” value (100 ppm, Time 28 (days) after sonication) was “−” and the “further bacterial growth” value (100 ppm, Time 90 (days) after sonication) was “−”. The “bacterial colonies on Nutrient Agar” value (100 ppm, sonicated 0 mins.) was “+++ (heavy contamination(>10^5 cfu/ml))”, the “bacterial colonies on Nutrient Agar” value (100 ppm, sonicated 5 mins.) was “+ (light contamination (10^0 and 10^3 cfu/ml))” and the “bacterial colonies on Nutrient Agar” value (100 ppm, sonicated 10 mins.) was “+ (light contamination (10^0 and 10^3 cfu/ml))”. For the same compound, the “bacterial colonies on Nutrient Agar” value (100 ppm, sonicated 15 mins.) was “−”, the “bacterial colonies on Nutrient Agar” value (100 ppm, sonicated 20 mins.) was “−” and the “bacterial colonies on Nutrient Agar” value (100 ppm, sonicated 25 mins.) was “−”. The “bacterial colonies on Nutrient Agar” value (100 ppm, sonicated 30 mins.) was “−”, the “further bacterial growth” value (150 ppm, Time 1 (days) after sonication) was “−” and the “further bacterial growth” value (150 ppm, Time 2 (days) after sonication) was “−”. For the same compound, the “further bacterial growth” value (150 ppm, Time 3 (days) after sonication) was “−”, the “further bacterial growth” value (150 ppm, Time 7 (days) after sonication) was “−” and the “further bacterial growth” value (150 ppm, Time 14 (days) after sonication) was “−”. For the same compound, the “further bacterial growth” value (150 ppm, Time 28 (days) after sonication) was “−”, the “further bacterial growth” value (150 ppm, Time 90 (days) after sonication) was “−” and the “bacterial colonies on Nutrient Agar” value (150 ppm, sonicated 0 mins.) was “+++ (heavy contamination(>10^5 cfu/ml))”. The “bacterial colonies on Nutrient Agar” value (150 ppm, sonicated 5 mins.) was “−”, the “bacterial colonies on Nutrient Agar” value (150 ppm, sonicated 10 mins.) was “−” and the “bacterial colonies on Nutrient Agar” value (150 ppm, sonicated 15 mins.) was “−”. The “bacterial colonies on Nutrient Agar” value (150 ppm, sonicated 20 mins.) was “−”, the “bacterial colonies on Nutrient Agar” value (150 ppm, sonicated 25 mins.) was “−” and the “bacterial colonies on Nutrient Agar” value (150 ppm, sonicated 30 mins.) was “−”. For the same compound, the “further bacterial growth” value (500 ppm, Time 1 (days) after sonication) was “−”, the “further bacterial growth” value (500 ppm, Time 2 (days) after sonication) was “−” and the “further bacterial growth” value (500 ppm, Time 3 (days) after sonication) was “−”. For the same compound, the “further bacterial growth” value (500 ppm, Time 7 (days) after sonication) was “−”, the “further bacterial growth” value (500 ppm, Time 14 (days) after sonication) was “−” and the “further bacterial growth” value (500 ppm, Time 28 (days) after sonication) was “−”. For the same compound, the “further bacterial growth” value (500 ppm, Time 90 (days) after sonication) was “−”, the “bacterial colonies on Nutrient Agar” value (500 ppm, sonicated 0 mins.) was “+++ (heavy contamination(>10^5 cfu/ml))” and the “bacterial colonies on Nutrient Agar” value (500 ppm, sonicated 5 mins.) was “−”. For the same compound, the “bacterial colonies on Nutrient Agar” value (500 ppm, sonicated 10 mins.) was “−”, the “bacterial colonies on Nutrient Agar” value (500 ppm, sonicated 15 mins.) was “−” and the “bacterial colonies on Nutrient Agar” value (500 ppm, sonicated 20 mins.) was “−”. The “bacterial colonies on Nutrient Agar” value (500 ppm, sonicated 25 mins.) was “−”, the “bacterial colonies on Nutrient Agar” value (500 ppm, sonicated 30 mins.) was “−” and the “further bacterial growth” value (1000 ppm, Time 1 (days) after sonication) was “−”. For the same compound, the “further bacterial growth” value (1000 ppm, Time 2 (days) after sonication) was “−”, the “further bacterial growth” value (1000 ppm, Time 3 (days) after sonication) was “−” and the “further bacterial growth” value (1000 ppm, Time 7 (days) after sonication) was “−”. The “further bacterial growth” value (1000 ppm, Time 14 (days) after sonication) was “−”, the “further bacterial growth” value (1000 ppm, Time 28 (days) after sonication) was “−” and the “further bacterial growth” value (1000 ppm, Time 90 (days) after sonication) was “−”. For the same compound, the “bacterial colonies on Nutrient Agar” value (1000 ppm, sonicated 0 mins.) was “+++ (heavy contamination(>10^5 cfu/ml))”, the “bacterial colonies on Nutrient Agar” value (1000 ppm, sonicated 5 mins.) was “−” and the “bacterial colonies on Nutrient Agar” value (1000 ppm, sonicated 10 mins.) was “−”. For the same compound, the “bacterial colonies on Nutrient Agar” value (1000 ppm, sonicated 15 mins.) was “−”, the “bacterial colonies on Nutrient Agar” value (1000 ppm, sonicated 20 mins.) was “−” and the “bacterial colonies on Nutrient Agar” value (1000 ppm, sonicated 25 mins.) was “−”. The “bacterial colonies on Nutrient Agar” value (1000 ppm, sonicated 30 mins.) was “−”, the “further bacterial growth” value (2000 ppm, Time 1 (days) after sonication) was “−” and the “further bacterial growth” value (2000 ppm, Time 2 (days) after sonication) was “−”. The “further bacterial growth” value (2000 ppm, Time 3 (days) after sonication) was “−”, the “further bacterial growth” value (2000 ppm, Time 7 (days) after sonication) was “−” and the “further bacterial growth” value (2000 ppm, Time 14 (days) after sonication) was “−”. The “further bacterial growth” value (2000 ppm, Time 28 (days) after sonication) was “−”, the “further bacterial growth” value (2000 ppm, Time 90 (days) after sonication) was “−” and the “bacterial colonies on Nutrient Agar” value (2000 ppm, sonicated 0 mins.) was “+++ (heavy contamination(>10^5 cfu/ml))”. For the same compound, the “bacterial colonies on Nutrient Agar” value (2000 ppm, sonicated 5 mins.) was “−”, the “bacterial colonies on Nutrient Agar” value (2000 ppm, sonicated 10 mins.) was “−” and the “bacterial colonies on Nutrient Agar” value (2000 ppm, sonicated 15 mins.) was “−”. For the same compound, the “bacterial colonies on Nutrient Agar” value (2000 ppm, sonicated 20 mins.) was “−”, the “bacterial colonies on Nutrient Agar” value (2000 ppm, sonicated 25 mins.) was “−” and the “bacterial colonies on Nutrient Agar” value (2000 ppm, sonicated 30 mins.) was “−”.
